Data: US20110015261A1, “USE OF A COMPOSITION COMPRISING AT LEAST ONE BETA-BLOCKER FOR THE TREATMENT OF SLEEP DISORDERS” (Zleepax Europe ApS, priority 2007, published 2011)
Like-named read-outs stand apart in the source and are kept apart here.

Columns and labels:
[1] = test system: patients with hypertension; conditions: cited from earlier work; for effect on the quality of sleep: patients with hypertension (Stoschitzky 2006)
[2] = test system: nocturnal aMT6s secretion; conditions: healthy volunteers (Stoschitzky 2006); cited from earlier work
[3] = test system: non-hypertensive stressed individuals with transient insomnia; assay: Sleep quality in non-hypertensive stressed individuals with transient insomnia; format: in vivo, human; conditions: 1.25 mg 2 hours before bedtime; 6 individuals (5 males, 1 female)
Experimental: 6 non-hypertensive stressed individuals with transient insomnia (5 males and 1 female) were treated with 1.25 mg Hypoloc (Nebivolol) 2 hours before bedtime.

SMILES	effect on the quality of sleep [1]	quality of sleep ([1]; patients with hypertension (Testa 1993))	effects on the nocturnal aMT6s urinary secretion [2]	quality of sleep ([1]; patients with hypertension (Erdem 2007))	sleep quality as reported by individuals [3]
CC(C)NCC(O)COc1ccc(COCCOC(C)C)cc1 (centres unmarked) [Bisoprolol]	no negative effect				
C[C@H](CS)C(=O)N1CCC[C@H]1C(=O)O [Captopril]		improve the quality of sleep			
COc1ccccc1OCCNCC(O)COc1cccc2[nH]c3ccccc3c12 (centres unmarked) [Carvedilol]	no negative effect		little if any effects		
OC(CNCC(O)C1CCc2cc(F)ccc2O1)C1CCc2cc(F)ccc2O1 (centres unmarked) [Nebivolol]	no negative effect		little if any effects	can improve the quality of sleep	significant improvement in sleep quality
